The text below walks through data of patent US8957035B2, “Toll like receptor (TLR) stimulation for ocular angiogenesis and macular degeneration” (University of Kentucky Research Foundation, priority 2006, dated 2015).

Common to all, as to assay type: in vivo, mouse
In data set [1] the test system is choroidal neovascularization. Description: Laser-induced choroidal neovascularization (CNV) volume in mice. The conditions noted are these: for effect on choroidal neovascularization (CNV): FIG. 1, 0.2-2 μg, poly I:C vs control poly dI:dC, loxoribine vs control PBS; for ability to suppress CNV in IL-10−/− mice / ability to suppress CNV in IL-12−/− mice: FIG. 6, 2 μg; for ability to suppress CNV in IL-10−/− mice: IL-10−/− mice versus wild-type; for ability to suppress CNV in IL-12−/− mice: IL-12−/− mice versus wild-type; for CNV volume in wild-type mice versus PBS: FIG. 7/8, 0.25 μg into the vitreous humor immediately after laser injury; for CNV in TLR3−/− mice: FIG. 7, differences not statistically significant. From the text:
All animal experiments were in accordance with the guidelines of the University of Kentucky IACUC and the Association for Research in Vision and Ophthalmology. Male C57BL/6J mice (Jackson Laboratory) between 6 and 8 weeks of age were used to minimize variability. The sources for the other mouse strains were: TLR3−/−, IL-10−/−, IL-12−/−, IFNγ−/− (Jackson Laboratory), IFNAR-1−/− (gift of H. Virgin, Washington University), TLR7−/− (gift of D. Golenback, University of Massachusetts), TLR9−/− (gift of E. Pearlman, Case Western Reserve University), VEGFR1 tyrosine kinase−/− (gift of M. Shibuya, University of Tokyo), Trif−/− (Trif deficient Lps2 mice from The Jackson Laboratories). For all procedures, anesthesia was achieved by intraperitoneal injection of 50 mg/kg ketamine hydrochloride (Ft. Dodge Animal Health) and 10 mg/kg xylazine (Phoenix Scientific), and pupils were dilated with topical 1% tropicamide (Alcon Laboratories).
Laser photocoagulation (532 nm, 200 mW, 100 ms, 75 μm) (OcuLight GL, Iridex Corporation) was performed (volume studies: 3/eye; protein analyses/flow cytometry: 12/eye) on both eyes of each animal to induce CNV (choroidal neovascularization). CNV volumes were measured by scanning laser confocal microscope (TCS SP, Leica) with 0.5% FITC-Griffonia simplicifolia Isolectin B4 (Vector Laboratories) or 0.5% FITC-rat antibody against mouse CD31 (BD Biosciences). Volumes obtained by lectin and CD31 staining were highly correlated (r^2=0.95).
Also tested were shorter non-targeted siRNAs: a 5+2 length nucleotide (5 nucleotides plus a 2 nucleotide overhang, with one strand having the sequence UAAGGdTdT and the other strand having the sequence CCUUAdTdT), and a 11+2 length nucleotide (11 nucleotides plus a 2 nucleotide overhang, with one strand having the sequence […]dTdT and the other strand having the sequence […]dTdT).
Because the probability of each laser lesion developing CNV is influenced by the group to which it belongs, the mouse, the eye, and the laser spot, the mean lesion volumes were compared using a linear mixed model with a split plot repeated measures design. The whole plot factor was the genetic group to which the animal belonged while the split plot factor was the eye. Statistical significance was determined at the 0.05 level. Post hoc comparison of means was constructed with a Bonferroni adjustment for multiple comparisons. ELISA measurements were compared by Student's t-test.

The test system of another data set is IL-12. The data set is described as follows: IL-12 protein ELISA in RPE/choroid after laser injury. The following applies: FIG. 4; 2 μg; wild-type mice; 1 day after laser injury. The procedure:
(§1) Laser photocoagulation (532 nm, 200 mW, 100 ms, 75 μm) (OcuLight GL, Iridex Corporation) was performed (volume studies: 3/eye; protein analyses/flow cytometry: 12/eye) on both eyes of each animal to induce CNV (choroidal neovascularization). CNV volumes were measured by scanning laser confocal microscope (TCS SP, Leica) with 0.5% FITC-Griffonia simplicifolia Isolectin B4 (Vector Laboratories) or 0.5% FITC-rat antibody against mouse CD31 (BD Biosciences). Volumes obtained by lectin and CD31 staining were highly correlated (r^2=0.95). […]
(§2) IL-10 and IL-12 protein levels were measured by ELISA (Peprotech) according to the manufacturer's instructions, as were IFN-α, IFN-β and IFN-γ (PBL InterferonSource). Total protein was measured according to Biorad.
(§3) Because the probability of each laser lesion developing CNV is influenced by the group to which it belongs, the mouse, the eye, and the laser spot, the mean lesion volumes were compared using a linear mixed model with a split plot repeated measures design. […] Statistical significance was determined at the 0.05 level. […]
IFN-α and IFN-β were measured by ELISA and normalized to total protein. […] IFN-γ was measured by ELISA (PBL InterferonSource) and IL-12 was measured by ELISA (eBioscience) and normalized to total protein. *P<0.05.
A general note: In an ELISA, binding on a coated surface is turned into a signal by an enzyme label.

The next data set deals with IL-10. The data set is described as follows: IL-10 protein ELISA in RPE/choroid after laser injury. The conditions noted are these: FIG. 4; 2 μg; wild-type mice; 3 days after laser injury. Here is the method: as §1, §2, §3
The mark [2] stands for this setting: dose-dependent, intravitreous immediately after laser injury, P<0.05.

“Also recorded” adds a separate entry of the source. d = 2'-deoxy (DNA); r = 2'-OH (RNA)

For `C=CCn1c(=O)n([C@@H]2O[C@H](CO)[C@@H](O)[C@H]2O)c2nc(N)[nH]c(=O)c21` [Loxoribine], the “effect on choroidal neovascularization (CNV)” value in data set [1] (setting [2]) is reported as “reduced CNV”. Moreover, in data set [1], the “ability to suppress CNV in IL-10−/− mice” value is “markedly reduced” and the “ability to suppress CNV in IL-12−/− mice” value is on record as “markedly reduced”. The “IL-12 protein expression in the RPE/choroid” value in the data set with IL-12 is “induced”. Moreover, in the data set on IL-10, the “IL-10 protein expression in the RPE/choroid” value is listed as “induced”.

Consider “Bevasiranib: siRNA against VEGF-A; sense ACCUCACCAAGGCCAGCACdTdT, antisense GUGCUGGCCUUGGUGAGGUdTdT (sense ACCUCACCAAGGCCAGCACTT; antisense GUGCUGGCCUUGGUGAGGUTT; sugars from the 5' end r19 d2, backbone not given here)”, for which, in data set [1] (P<0.05), the “CNV volume in wild-type mice versus PBS” value is listed as “essentially equally effective in suppressing CNV”. For the same compound, the “CNV in TLR3−/− mice” value in data set [1] (0.25 μg intravitreous) is “non of them suppressed CNV”.

Consider Poly I:C, for which, in data set [1] (setting [2]), the “effect on choroidal neovascularization (CNV)” value is listed as “reduced CNV”. In addition, in data set [1], the “ability to suppress CNV in IL-10−/− mice” value was “markedly reduced” and the “ability to suppress CNV in IL-12−/− mice” value was “markedly reduced”. The “IL-12 protein expression in the RPE/choroid” value in the data set with IL-12 is “induced”. Also, the “IL-10 protein expression in the RPE/choroid” value in the data set with IL-10 is “induced”.

As for “Sirna-027: siRNA against VEGFR-1; sense CUGAGUUUAAAAGGCACCCdTdT, antisense GGGUGCCUUUUAAACUCAGdTdT (sense CUGAGUUUAAAAGGCACCCTT; antisense GGGUGCCUUUUAAACUCAGTT; sugars from the 5' end r19 d2, backbone not given here)”, in data set [1] (P<0.05), the “CNV volume in wild-type mice versus PBS” value was “essentially equally effective in suppressing CNV; also recorded: significantly lower than control”. Also, the “CNV in TLR3−/− mice” value in data set [1] (0.25 μg intravitreous) is “non of them suppressed CNV”. Also, the “CNV in VEGFR1 tk−/− mice versus PBS” value in data set [1] (FIG. 8, 0.25 μg intravitreous, VEGFR1 tyrosine kinase−/− mice, P<0.05) is on record as “suppressed CNV”.

As to “recombinant mouse IFNγ: recombinant mouse IFNγ (eBioscience)”, the “effect on choroidal neovascularization in wild-type C57BL/6J mice” value in data set [1] (FIG. 14, intravitreous immediately after laser injury, dose-dependent, P<0.05) was “reduced choroidal neovascularization”.
